# Laboratory results: patent publication US20020137929A1, “1 - (3-heterocyclylphenyl) isothiourea, -isourea, -guanidine and -amidine herbicidal agents” (Intellectual Property Department, BASF Aktiengesellschaft, priority 1998, published 2002)
# What was measured:
# GALAP (Galium) = assay: Postemergence herbicidal evaluation; type: in vivo, Galium aparine; settings: for Herbicidal rating GALAP: postemergence
# In short: (§1)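 Compound is applied as a foliar spray to seedlings about two weeks old, formulated in equal parts acetone and water with 0.5% TWEEN 20 and delivered at 40 psi to give about 0.0156–0.500 kg per hectare. Injury is rated visually 0–9 after four to five weeks.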
# [1] = system: SAGPY (Arrowhead (Pygmaea)); assay: Postemergence weed control under flooded paddy conditions; type: in vivo, Sagittaria pygmaea; settings: postemergence weeds
# In short: (§2)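 With weeds 3 to 5 cm tall and rice at the 1.5 to 2.5 leaf stage, containers were flooded and water held 1.5 to 3 cm above soil. Compounds in 50/50 v/v aqueous/acetone went into the flood water at about 0.0313 to 0.500 kg/ha a.i. Effects were visually rated 0–9 against controls after three to four weeks in the greenhouse.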
# CASOB (Sicklepod) = assay: Postemergence herbicidal evaluation; type: in vivo, Cassia obtusifolia; settings: for Herbicidal rating CASOB: postemergence
# In short: as §1
# AMBEL (Ragweed, Common) = assay: Postemergence herbicidal evaluation; type: in vivo, Ambrosia artemisifolia; settings: for Herbicidal rating AMBEL: postemergence
# In short: as §1
# [2] = system: GLXMAW (Soybean, Williams); assay: Postemergence herbicidal evaluation; type: in vivo, Glycine max, (L.) Merr. cv Williams; settings: for Herbicidal rating GLXMAW: postemergence
# In short: as §1
# [3] = system: SAGPY (Arrowhead (Pygmaea)); assay: Preemergence weed control under flooded paddy conditions; type: in vivo, Sagittaria pygmaea; settings: rated 3-4 weeks after treatment
# In short: (§3)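 Seeds or propagules sown in top 0.5 cm of silt loam soil, flooded 1.5 to 3 cm above surface throughout. Compound in 50/50 v/v aqueous/acetone pipetted into flood water at about 0.0313 to 0.500 kg/ha. Visual 0-9 rating versus control after three to four weeks in greenhouse.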
# [4] = system: ECHORC (Watergrass (Calif.)); assay: Postemergence weed control under flooded paddy conditions; type: in vivo, Echinochloa oryzoides; settings: postemergence weeds
# In short: as §2
# CYPSE (Flatsedge) = assay: Preemergence weed control under flooded paddy conditions; type: in vivo, Cyperus serotinus; settings: rated 3-4 weeks after treatment
# In short: as §3
# MOOVA (Monochoria) = assay: as above; type: in vivo, Monochoria vaginalis; settings: rated 3-4 weeks after treatment
# In short: as §3
# [5] = system: ECHORC (Watergrass (Calif.)); assay: as above; type: in vivo, Echinochloa oryzoides; settings: rated 3-4 weeks after treatment
# In short: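 Seeds or propagules sown in silt loam kept flooded 1.5-3 cm; compounds in 50/50 acetone/water pipetted into flood water at about 0.0313 to 0.500 kg/ha. Greenhouse; visual 0-9 rating versus untreated control 3-4 weeks after treatment.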
# [6] = system: TRZAWR (Wheat, Winter, cv Riband); assay: Postemergence herbicidal evaluation; type: in vivo, Triticum aestivum; settings: for Herbicidal rating TRZAWR: postemergence
# In short: as §1
# [7] = rate 0.0313 kg/ha, 3-4 weeks after treatment
# [8] = rate 0.0625 kg/ha, 3-4 weeks after treatment
# [9] = rate 0.1250 kg/ha, 3-4 weeks after treatment
# [10] = rate 0.2500 kg/ha, 3-4 weeks after treatment
# [11] = Rate 0.0313 kg/ha, rated 3 to 4 weeks after treatment
# [12] = Rate 0.0625 kg/ha, rated 3 to 4 weeks after treatment
# [13] = Rate 0.1250 kg/ha, rated 3 to 4 weeks after treatment
# [14] = Rate 0.2500 kg/ha, rated 3 to 4 weeks after treatment
# [15] = Rate 0.5000 kg/ha, rated 3 to 4 weeks after treatment
compound,measurement,setting,value
"CCOC(=O)CN1C(=O)C(CC(=O)OC(C)C)SC1=Nc1cc(-n2c(=O)cc(C(F)(F)F)n(C)c2=O)c(F)cc1Cl (stereo not drawn) [Compound 55, 2-{{2-Chloro-5-[3,6-dihydro-3-methyl-2,6-dioxo-4-(trifluoromethyl)-1(2H)-pyrimidinyl]-4-fluoro-phenyl}imino}-4-oxo-3,5-thiazolidinediacetic acid, 3-ethyl isopropyl ester]",Postemergence herbicidal rating GALAP,GALAP (Galium); Rate 0.0158 kg/ha,6.0
same,Postemergence herbicidal rating GALAP,GALAP (Galium); Rate 0.0313 kg/ha,3.3
same,Postemergence herbicidal rating GALAP,GALAP (Galium); Rate 0.0625 kg/ha,7.0
same,Postemergence herbicidal rating GALAP,GALAP (Galium); Rate 0.1250 kg/ha,9.0
same,Postemergence herbicidal rating GALAP,GALAP (Galium); Rate 0.2500 kg/ha,9.0
same,Herbicidal rating SAGPY,[1]; [7],0.0
same,Herbicidal rating SAGPY,[1]; [8],0.0
same,Herbicidal rating SAGPY,[1]; [9],0.0
same,Herbicidal rating SAGPY,[1]; [10],0.0
same,Postemergence herbicidal rating CASOB,CASOB (Sicklepod); Rate 0.0158 kg/ha,1.0
same,Postemergence herbicidal rating CASOB,CASOB (Sicklepod); Rate 0.0313 kg/ha,7.7
same,Postemergence herbicidal rating CASOB,CASOB (Sicklepod); Rate 0.0625 kg/ha,9.0
same,Postemergence herbicidal rating CASOB,CASOB (Sicklepod); Rate 0.1250 kg/ha,8.0
same,Postemergence herbicidal rating CASOB,CASOB (Sicklepod); Rate 0.2500 kg/ha,9.0
same,Postemergence herbicidal rating AMBEL,"AMBEL (Ragweed, Common); Rate 0.0158 kg/ha",9.0
same,Postemergence herbicidal rating AMBEL,"AMBEL (Ragweed, Common); Rate 0.0313 kg/ha",9.0
same,Postemergence herbicidal rating AMBEL,"AMBEL (Ragweed, Common); Rate 0.0625 kg/ha",9.0
same,Postemergence herbicidal rating AMBEL,"AMBEL (Ragweed, Common); Rate 0.1250 kg/ha",9.0
same,Postemergence herbicidal rating AMBEL,"AMBEL (Ragweed, Common); Rate 0.2500 kg/ha",9.0
same,Postemergence herbicidal rating GLXMAW,[2]; Rate 0.0158 kg/ha,8.0
same,Postemergence herbicidal rating GLXMAW,[2]; Rate 0.0313 kg/ha,8.2
same,Postemergence herbicidal rating GLXMAW,[2]; Rate 0.0625 kg/ha,8.0
same,Postemergence herbicidal rating GLXMAW,[2]; Rate 0.1250 kg/ha,8.3
same,Postemergence herbicidal rating GLXMAW,[2]; Rate 0.2500 kg/ha,8.0
same,Herbicidal rating SAGPY,[3]; 0.0313 kg/ha,0.0
same,Herbicidal rating SAGPY,[3]; 0.0625 kg/ha,0.0
same,Herbicidal rating SAGPY,[3]; 0.1250 kg/ha,0.0
same,Herbicidal rating SAGPY,[3]; 0.2500 kg/ha,0.0
same,Herbicidal rating ECHORC,[4]; [7],7.0
same,Herbicidal rating ECHORC,[4]; [8],7.0
same,Herbicidal rating ECHORC,[4]; [9],7.0
same,Herbicidal rating ECHORC,[4]; [10],7.0
same,Herbicidal rating CYPSE,CYPSE (Flatsedge); 0.0313 kg/ha,0.0
same,Herbicidal rating CYPSE,CYPSE (Flatsedge); 0.0625 kg/ha,0.0
same,Herbicidal rating CYPSE,CYPSE (Flatsedge); 0.1250 kg/ha,0.0
same,Herbicidal rating CYPSE,CYPSE (Flatsedge); 0.2500 kg/ha,0.0
same,Herbicidal rating MOOVA,MOOVA (Monochoria); 0.0313 kg/ha,9.0
same,Herbicidal rating MOOVA,MOOVA (Monochoria); 0.0625 kg/ha,9.0
same,Herbicidal rating MOOVA,MOOVA (Monochoria); 0.1250 kg/ha,9.0
same,Herbicidal rating MOOVA,MOOVA (Monochoria); 0.2500 kg/ha,9.0
same,Herbicidal rating ECHORC,[5]; 0.0313 kg/ha,7.0
same,Herbicidal rating ECHORC,[5]; 0.0625 kg/ha,7.0
same,Herbicidal rating ECHORC,[5]; 0.1250 kg/ha,7.0
same,Herbicidal rating ECHORC,[5]; 0.2500 kg/ha,7.0
same,Postemergence herbicidal rating TRZAWR,[6]; Rate 0.0158 kg/ha,5.5
same,Postemergence herbicidal rating TRZAWR,[6]; Rate 0.0313 kg/ha,6.8
same,Postemergence herbicidal rating TRZAWR,[6]; Rate 0.0625 kg/ha,7.5
same,Postemergence herbicidal rating TRZAWR,[6]; Rate 0.1250 kg/ha,7.5
same,Postemergence herbicidal rating TRZAWR,[6]; Rate 0.2500 kg/ha,7.5
"C=CCN1C(=O)C(CC(=O)NS(=O)(=O)c2ccccc2)SC1=Nc1cc(-n2c(=O)cc(C(F)(F)F)n(C)c2=O)c(F)cc1Cl (stereo not drawn) [Compound 101, 3-Allyl-2-{{2-chloro-5-[3,6-dihydro-3-methyl-2,6-dioxo-4-(trifluoromethyl)-1(2H)-pyrimidinyl]-4-fluorophenyl}imino}-4-oxo-N-(phenylsulfonyl)-5-thiazolidineacetamide]",Herbicidal rating GALAP,GALAP (Galium); rate 0.0156 kg/ha,0.0
same,Herbicidal rating GALAP,GALAP (Galium); rate 0.0313 kg/ha,1.0
same,Herbicidal rating GALAP,GALAP (Galium); rate 0.0625 kg/ha,1.0
same,Herbicidal rating GALAP,GALAP (Galium); rate 0.1250 kg/ha,2.0
same,Herbicidal rating SAGPY,[1]; [11],0.0
same,Herbicidal rating SAGPY,[1]; [12],0.0
same,Herbicidal rating SAGPY,[1]; [13],0.0
same,Herbicidal rating SAGPY,[1]; [14],2.0
same,Herbicidal rating SAGPY,[1]; [15],4.0
same,Herbicidal rating CASOB,CASOB (Sicklepod); rate 0.0156 kg/ha,0.0
same,Herbicidal rating CASOB,CASOB (Sicklepod); rate 0.0313 kg/ha,0.0
same,Herbicidal rating CASOB,CASOB (Sicklepod); rate 0.0625 kg/ha,2.0
same,Herbicidal rating CASOB,CASOB (Sicklepod); rate 0.1250 kg/ha,3.0
same,Herbicidal rating AMBEL,"AMBEL (Ragweed, Common); rate 0.0156 kg/ha",9.0
same,Herbicidal rating AMBEL,"AMBEL (Ragweed, Common); rate 0.0313 kg/ha",7.0
same,Herbicidal rating AMBEL,"AMBEL (Ragweed, Common); rate 0.0625 kg/ha",9.0
same,Herbicidal rating AMBEL,"AMBEL (Ragweed, Common); rate 0.1250 kg/ha",9.0
same,Herbicidal rating GLXMAW,[2]; rate 0.0156 kg/ha,5.5
same,Herbicidal rating GLXMAW,[2]; rate 0.0313 kg/ha,5.5
same,Herbicidal rating GLXMAW,[2]; rate 0.0625 kg/ha,6.0
same,Herbicidal rating GLXMAW,[2]; rate 0.1250 kg/ha,6.5
same,SAGPY herbicidal effect rating,[3]; 0.0313 kg/ha,0.0
same,SAGPY herbicidal effect rating,[3]; 0.0625 kg/ha,0.0
same,SAGPY herbicidal effect rating,[3]; 0.1250 kg/ha,0.0
same,SAGPY herbicidal effect rating,[3]; 0.2500 kg/ha,2.0
same,SAGPY herbicidal effect rating,[3]; 0.5000 kg/ha,4.0
same,Herbicidal rating ECHORC,[4]; [11],0.0
same,Herbicidal rating ECHORC,[4]; [12],0.0
same,Herbicidal rating ECHORC,[4]; [13],0.0
same,Herbicidal rating ECHORC,[4]; [14],0.0
same,Herbicidal rating ECHORC,[4]; [15],0.0
same,CYPSE herbicidal effect rating,CYPSE (Flatsedge); 0.0313 kg/ha,0.0
same,CYPSE herbicidal effect rating,CYPSE (Flatsedge); 0.0625 kg/ha,0.0
same,CYPSE herbicidal effect rating,CYPSE (Flatsedge); 0.1250 kg/ha,0.0
same,CYPSE herbicidal effect rating,CYPSE (Flatsedge); 0.2500 kg/ha,0.0
same,CYPSE herbicidal effect rating,CYPSE (Flatsedge); 0.5000 kg/ha,0.0
same,MOOVA herbicidal effect rating,MOOVA (Monochoria); 0.0313 kg/ha,5.0
same,MOOVA herbicidal effect rating,MOOVA (Monochoria); 0.0625 kg/ha,5.0
same,MOOVA herbicidal effect rating,MOOVA (Monochoria); 0.1250 kg/ha,7.0
same,MOOVA herbicidal effect rating,MOOVA (Monochoria); 0.2500 kg/ha,9.0
same,MOOVA herbicidal effect rating,MOOVA (Monochoria); 0.5000 kg/ha,9.0
same,ECHORC herbicidal effect rating,[5]; 0.0313 kg/ha,0.0
same,ECHORC herbicidal effect rating,[5]; 0.0625 kg/ha,0.0
same,ECHORC herbicidal effect rating,[5]; 0.1250 kg/ha,0.0
same,ECHORC herbicidal effect rating,[5]; 0.2500 kg/ha,0.0
same,ECHORC herbicidal effect rating,[5]; 0.5000 kg/ha,0.0
same,Herbicidal rating TRZAWR,[6]; rate 0.0156 kg/ha,3.0
same,Herbicidal rating TRZAWR,[6]; rate 0.0313 kg/ha,3.5
same,Herbicidal rating TRZAWR,[6]; rate 0.0625 kg/ha,4.0
same,Herbicidal rating TRZAWR,[6]; rate 0.1250 kg/ha,5.0
